Results reported in US11541067B2, “HMO compositions and methods for reducing detrimental proteolytic metabolites” (Glycom A/S, priority 2017, dated 2023).

System: microbial metabolites
Test: M-SHIME (M-TripleSHIME) in vitro gastrointestinal model: bacterial metabolite analysis
Assay type: cell-based, human
Settings: proximal (PC) and distal (DC) colon reactor; FIG. 1 in mg/l, means of three weekly samples
Source text: The impact of the HMOs on microbiota and bacterial metabolites was investigated in the M-SHIME® (M-TripleSHlME®) in vitro gastrointestinal model (Prodigest). The typical reactor setup of the M-TripleSHIME® consisted of a succession of four reactors simulating the different parts of the human gastrointestinal tract. The first two reactors were of the fill-and-draw principle to simulate different steps in food uptake and digestion, with peristaltic pumps adding a defined amount of SHIME feed (140 mL 3×/day) and pancreatic and bile liquid (60 ml 3×/day), respectively, to the stomach and small intestine compartment and emptying the respective reactors after specified intervals. The last two compartments were continuously stirred reactors with constant volume and pH control. […]
The M-TripleSHIME® was run in four stages: • 1. […] The baseline microbial community composition and activity in the different reactors was determined by analysis of samples and was used as a reference. • 3. […]
Sample of the liquids in each reactor were collected regularly (three times in a week, on day 1, day 3 and day 5) and were analysed for microbial metabolites and the composition of the resident microbial community. In particular, the bifidobacteria composition was analysed using ITS profiling.

CC(=O)N[C@H]1[C@H](O[C@H]2[C@@H](O)[C@@H](CO)O[C@@H](O[C@H]3[C@H](O)[C@@H](O)C(O)O[C@@H]3CO)[C@@H]2O)O[C@H](CO)[C@@H](O[C@@H]2O[C@H](CO)[C@H](O)[C@H](O)[C@H]2O)[C@@H]1O (mixture of isomers) [LNnT, lacto-N-neotetraose]
ammonia production compared with the effect of 2′-FL (FIG. 1): similar | branched SOFA production compared with the effect of 2′-FL (FIG. 1): similar
